Measurements reported in US10875874B2, “Ginkgolide B derivative and preparation method and use thereof” (Chengdu Baiyu Ginkgolide Pharmaceuticals Co., Ltd., priority 2015, dated 2020).
In brackets after ≈: the same amount, converted by molar mass. Marks after values point to notes of the source that are not given here.

Tests used:
[1] = test system: spontaneously hypertensive rats (SHR); test: Caudal artery systolic pressure of spontaneously hypertensive rats, 8 weeks of continuous medication; type: in vivo, rat; settings: x ± s, n = 8
In short: (§1)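 SHR rats of both sexes (200–250 g, 8/group) dosed intragastrically with 60 or 120 mg/kg/d, or captopril 27 mg/kg, once daily for 8 weeks; Wistar rats and vehicle SHR served as controls. Tail-cuff systolic pressure taken as the mean of 3 readings, measured before dosing and 30–120 min after the first dose, or 30 min post-dose on days 1–56 for chronic treatment.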

[2] = test system: spontaneously hypertensive rats (SHR); test: Caudal artery systolic pressure of spontaneously hypertensive rats, single administration; type: in vivo, rat; settings: x ± s, n = 8
In short: as §1

[3] = Weekly body weight of SHR rats; type: in vivo, rat
In short: (§2)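 Male and female SHR rats (200-250 g, 8/group) dosed intragastrically once daily for 8 weeks with test compounds at 60 or 120 mg/kg/d or captopril 27 mg/kg; Wistar and SHR controls received distilled water. Body weight and food intake observed during treatment.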

[4] = Weekly food intake of SHR rats; type: in vivo, rat
In short: as §2

Water solubility test = settings: purified water, thermodynamic from solid
Method: Measuring method: samples are ground to obtain fine powder, target compounds are quantitatively weighed, the weighed compounds are added into purified water, and the solubility of the compounds is investigated by ultrasonics.

[5] = 60 mg/kg/d intragastric continuous, 1 d, 30 min after administration
[6] = 60 mg/kg/d intragastric continuous, 7 d, 30 min after administration
[7] = 60 mg/kg/d intragastric continuous, 13 d, 30 min after administration
[8] = 60 mg/kg/d intragastric continuous, 19 d, 30 min after administration
[9] = 60 mg/kg/d intragastric continuous, 25 d, 30 min after administration
[10] = 60 mg/kg/d intragastric continuous, 35 d, 30 min after administration
[11] = 60 mg/kg/d intragastric continuous, 49 d, 30 min after administration
[12] = 60 mg/kg/d intragastric continuous, 56 d, 30 min after administration
[13] = 60 mg/kg/d intragastric continuous, before administration
[14] = 120 mg/kg/d intragastric continuous, 1 d, 30 min after administration
[15] = 120 mg/kg/d intragastric continuous, 7 d, 30 min after administration
[16] = 120 mg/kg/d intragastric continuous, 13 d, 30 min after administration
[17] = 120 mg/kg/d intragastric continuous, 19 d, 30 min after administration
[18] = 120 mg/kg/d intragastric continuous, 25 d, 30 min after administration
[19] = 120 mg/kg/d intragastric continuous, 35 d, 30 min after administration
[20] = 120 mg/kg/d intragastric continuous, 49 d, 30 min after administration
[21] = 120 mg/kg/d intragastric continuous, 56 d, 30 min after administration
[22] = 120 mg/kg/d intragastric continuous, before administration
[23] = 60 mg/kg intragastric single administration, 30 min
[24] = 60 mg/kg intragastric single administration, 60 min
[25] = 60 mg/kg intragastric single administration, 90 min
[26] = 60 mg/kg intragastric single administration, 120 min
[27] = 60 mg/kg intragastric single administration, before administration
[28] = 120 mg/kg intragastric single administration, 30 min
[29] = 120 mg/kg intragastric single administration, 60 min
[30] = 120 mg/kg intragastric single administration, 90 min
[31] = 120 mg/kg intragastric single administration, 120 min
[32] = 120 mg/kg intragastric single administration, before administration
[33] = 60 mg/kg/d intragastric, week 0
[34] = 60 mg/kg/d intragastric, week 1
[35] = 60 mg/kg/d intragastric, week 2
[36] = 60 mg/kg/d intragastric, week 3
[37] = 60 mg/kg/d intragastric, week 4
[38] = 60 mg/kg/d intragastric, week 5
[39] = 60 mg/kg/d intragastric, week 6
[40] = 60 mg/kg/d intragastric, week 7
[41] = 60 mg/kg/d intragastric, week 8
[42] = 120 mg/kg/d intragastric, week 0
[43] = 120 mg/kg/d intragastric, week 1
[44] = 120 mg/kg/d intragastric, week 2
[45] = 120 mg/kg/d intragastric, week 3
[46] = 120 mg/kg/d intragastric, week 4
[47] = 120 mg/kg/d intragastric, week 5
[48] = 120 mg/kg/d intragastric, week 6
[49] = 120 mg/kg/d intragastric, week 7
[50] = 120 mg/kg/d intragastric, week 8

CCCCC(OC(C)=O)c1ccccc1C(=O)O[C@H]1C(=O)O[C@H]2O[C@]34C(=O)OC5C[C@@H](C(C)(C)C)C21[C@@]53[C@@H](O)[C@@H]1OC(=O)[C@@H](C)[C@@]14O (stereo partly shown) [BD]
Systolic pressure [1, 5]: 156.20 ± 13.41 mmHg
Systolic pressure [1, 6]: 152.95 ± 11.03 mmHg
Systolic pressure [1, 7]: 155.74 ± 15.25 mmHg
Systolic pressure [1, 8]: 153.01 ± 14.04 mmHg
Systolic pressure [1, 9]: 152.30 ± 10.45 mmHg
Systolic pressure [1, 10]: 157.03 ± 14.08 mmHg
Systolic pressure [1, 11]: 153.96 ± 14.74 mmHg
Systolic pressure [1, 12]: 154.57 ± 12.48 mmHg
Systolic pressure [1, 13]: 163.64 ± 14.02 mmHg
Systolic pressure [1, 14]: 150.49 ± 15.34 mmHg
Systolic pressure [1, 15]: 152.64 ± 11.45 mmHg
Systolic pressure [1, 16]: 147.33 ± 13.42 mmHg
Systolic pressure [1, 17]: 145.49 ± 12.98 mmHg
Systolic pressure [1, 18]: 147.66 ± 14.02 mmHg
Systolic pressure [1, 19]: 145.61 ± 9.47 mmHg
Systolic pressure [1, 20]: 148.62 ± 12.04 mmHg
Systolic pressure [1, 21]: 142.15 ± 13.14 mmHg
Systolic pressure [1, 22]: 164.57 ± 13.25 mmHg
Systolic pressure [2, 23]: 157.74 ± 9.28 mmHg
Systolic pressure [2, 24]: 152.67 ± 13.52 mmHg
Systolic pressure [2, 25]: 151.60 ± 12.04 mmHg
Systolic pressure [2, 26]: 155.68 ± 10.15 mmHg
Systolic pressure [2, 27]: 163.64 ± 14.02 mmHg
Systolic pressure [2, 28]: 148.47 ± 10.87 mmHg
Systolic pressure [2, 29]: 151.75 ± 10.68 mmHg
Systolic pressure [2, 30]: 157.25 ± 14.38 mmHg
Systolic pressure [2, 31]: 160.49 ± 14.76 mmHg
Systolic pressure [2, 32]: 164.57 ± 13.25 mmHg
Body weight [3, 33]: 229.2 g
Body weight [3, 34]: 234.5 g
Body weight [3, 35]: 247.1^▴▴ g
Body weight [3, 36]: 252.2 g
Body weight [3, 37]: 257.2 g
Body weight [3, 38]: 262.4 g
Body weight [3, 39]: 270.4^▴ g
Body weight [3, 40]: 280.2^▴▴ g
Body weight [3, 41]: 290.5^▴▴ g
Body weight [3, 42]: 230.9 g
Body weight [3, 43]: 252.0^▴▴ g
Body weight [3, 44]: 257.5^▴▴ g
Body weight [3, 45]: 263.9^▴▴ g
Body weight [3, 46]: 270.8^▴▴ g
Body weight [3, 47]: 281.2^▴▴ g
Body weight [3, 48]: 291.0^▴▴ g
Body weight [3, 49]: 304.7^▴▴ g
Body weight [3, 50]: 321.7^▴▴ g
Average dairy food intake [4, 33]: 18.7 g/day
Average dairy food intake [4, 34]: 19.0^▴ g/d
Average dairy food intake [4, 35]: 19.4^▴ g/d
Average dairy food intake [4, 36]: 19.8^▴ g/d
Average dairy food intake [4, 37]: 20.0^▴▴ g/d
Average dairy food intake [4, 38]: 21.3^▴▴ g/d
Average dairy food intake [4, 39]: 22.6^▴▴ g/d
Average dairy food intake [4, 40]: 24.3^▴▴ g/d
Average dairy food intake [4, 41]: 25.0^▴▴ g/d
Average dairy food intake [4, 42]: 18.3 g/day
Average dairy food intake [4, 43]: 20.1^▴ g/d
Average dairy food intake [4, 44]: 20.6^▴▴ g/d
Average dairy food intake [4, 45]: 21.0^▴▴ g/d
Average dairy food intake [4, 46]: 21.5^▴▴ g/d
Average dairy food intake [4, 47]: 22.8^▴▴ g/d
Average dairy food intake [4, 48]: 23.9^▴▴ g/d
Average dairy food intake [4, 49]: 25.4^▴▴ g/d
Average dairy food intake [4, 50]: 26.9^▴▴ g/d
solubility (Water solubility test): 250 µg/mL (≈ 381 µM)

Cc1nc(C)c(C(=O)O[C@H]2C(=O)O[C@H]3O[C@]45C(=O)OC6C[C@@H](C(C)(C)C)C32[C@@]64[C@@H](O)[C@@H]2OC(=O)[C@@H](C)[C@@]25O)nc1C (stereo partly shown) [BZ]
Systolic pressure [1, 5]: 158.77 ± 11.06 mmHg
Systolic pressure [1, 6]: 153.41 ± 14.08 mmHg
Systolic pressure [1, 7]: 151.38 ± 9.47 mmHg
Systolic pressure [1, 8]: 155.74 ± 10.62 mmHg
Systolic pressure [1, 9]: 154.94 ± 9.64 mmHg
Systolic pressure [1, 10]: 150.95 ± 5.04 mmHg
Systolic pressure [1, 11]: 155.06 ± 6.37 mmHg
Systolic pressure [1, 12]: 153.95 ± 14.01 mmHg
Systolic pressure [1, 13]: 163.58 ± 10.36 mmHg
Systolic pressure [1, 14]: 154.69 ± 9.85 mmHg
Systolic pressure [1, 15]: 153.74 ± 10.24 mmHg
Systolic pressure [1, 16]: 150.39 ± 10.39 mmHg
Systolic pressure [1, 17]: 149.72 ± 9.83 mmHg
Systolic pressure [1, 18]: 149.02 ± 8.26 mmHg
Systolic pressure [1, 19]: 151.72 ± 10.47 mmHg
Systolic pressure [1, 20]: 153.42 ± 12.04 mmHg
Systolic pressure [1, 21]: 148.62 ± 9.73 mmHg
Systolic pressure [1, 22]: 166.24 ± 12.14 mmHg
Systolic pressure [2, 23]: 152.65 ± 10.48 mmHg
Systolic pressure [2, 24]: 153.05 ± 16.39 mmHg
Systolic pressure [2, 25]: 151.14 ± 10.87 mmHg
Systolic pressure [2, 26]: 156.47 ± 12.47 mmHg
Systolic pressure [2, 27]: 163.58 ± 10.36 mmHg
Systolic pressure [2, 28]: 150.00 ± 9.15 mmHg
Systolic pressure [2, 29]: 152.95 ± 9.26 mmHg
Systolic pressure [2, 30]: 156.28 ± 13.95 mmHg
Systolic pressure [2, 31]: 169.36 ± 10.63 mmHg
Systolic pressure [2, 32]: 166.24 ± 12.14 mmHg
Body weight [3, 33]: 231.0 g
Body weight [3, 34]: 235.7 g
Body weight [3, 35]: 242.5 g
Body weight [3, 36]: 251.6 g
Body weight [3, 37]: 259.4^▴ g
Body weight [3, 38]: 263.6^▴ g
Body weight [3, 39]: 269.1^▴▴ g
Body weight [3, 40]: 276.8^▴▴ g
Body weight [3, 41]: 288.0^▴▴ g
Body weight [3, 42]: 268.9 g
Body weight [3, 43]: 249.4^▴▴ g
Body weight [3, 44]: 256.7^▴▴ g
Body weight [3, 45]: 262.4^▴▴ g
Body weight [3, 46]: 268.9^▴▴ g
Body weight [3, 47]: 280.7^▴▴ g
Body weight [3, 48]: 291.3^▴▴ g
Body weight [3, 49]: 305.4^▴▴ g
Body weight [3, 50]: 320.9^▴▴ g
Average dairy food intake [4, 33]: 18.1 g/day
Average dairy food intake [4, 34]: 19.5^▴ g/d
Average dairy food intake [4, 35]: 19.7^▴ g/d
Average dairy food intake [4, 36]: 20.4^▴▴ g/d
Average dairy food intake [4, 37]: 20.9^▴▴ g/d
Average dairy food intake [4, 38]: 21.7^▴▴ g/d
Average dairy food intake [4, 39]: 22.9^▴▴ g/d
Average dairy food intake [4, 40]: 24.0^▴▴ g/d
Average dairy food intake [4, 41]: 24.9^▴▴ g/d
Average dairy food intake [4, 42]: 18.0 g/day
Average dairy food intake [4, 43]: 19.3^▴ g/d
Average dairy food intake [4, 44]: 20.5^▴▴ g/d
Average dairy food intake [4, 45]: 22.0^▴▴ g/d
Average dairy food intake [4, 46]: 22.6^▴▴ g/d
Average dairy food intake [4, 47]: 23.6^▴▴ g/d
Average dairy food intake [4, 48]: 24.1^▴▴ g/d
Average dairy food intake [4, 49]: 24.9^▴▴ g/d
Average dairy food intake [4, 50]: 27.0^▴▴ g/d
solubility (Water solubility test): 300 µg/mL (≈ 524 µM)
